The assay is described as follows: Binding affinity against [3H]8-OH-DPAT-labeled 5-hydroxytryptamine 1A receptor sites in bovine hippocampus.

Usually Ki stands for the dissociation constant of the complex between target and ligand, obtained from inhibition or displacement. A higher Ki goes with weaker binding. In the case of `CCCN1CCC2c3c(cccc3OC)CCC21` (stereo not drawn) [9-Methoxy-3-propyl-2,3,3a,4,5,9b-hexahydro-1H-benzo[e]indole], the Ki is 4.4 nM.
The figure for `CCCN1CCC2c3c(cccc3OC)CC[C@@H]21` (stereo partly drawn) [9-Methoxy-3-propyl-2,3,3a,4,5,9b-hexahydro-1H-benzo[e]indole] is 186 nM; for `COc1cccc2c1CC[C@@H]1[C@H]2CCN1CC1CC1` [(3aR,9bS)-3-Cyclopropylmethyl-6-methoxy-2,3,3a,4,5,9b-hexahydro-1H-benzo[e]indole] it is over 1000 nM.

For the origin of these results see BindingDB's records for doi:10.1021/jm00060a014 (Upjohn Laboratories, 1993).
